This note sets out measurements from ChEMBL document CHEMBL1201862, “PubChem BioAssay data set” (2004).

Test systems include SF-268; UACC-257; SK-MEL-5; ACHN; SK-MEL-28; SW-620; MOLT-4; COLO 205; KM12; NCI-H226; HL-60; SF-539; CAKI-1; EKVX; OVCAR-3; LOX IMVI; A549; NCI-H460; NCI-H522.
Holding throughout (test): NCI tumour cell line growth inhibition, 48 h

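The compound was tested at five concentrations on cells cultured in 96-well plates, with a 48-hour exposure period. Abbreviation: GI50, concentration required for 50% inhibition of growth.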 Activity calls are given as the source filed them. Cut-off read from the data, not from the text of the source: active = GI50 up to about 1.1 µM and inactive = higher.

Turning to `CSc1nc(NC(=O)O)c(N(C(C)=O)C(=O)O)c(=O)n1C`, the GI50 in the assay with SF-268, with UACC-257, in the assay with SK-MEL-5, in the assay with ACHN, with SK-MEL-28 and in the assay with SW-620 was > 100 µM (inactive) in each case. For the same molecule, the GI50 in the assay on MOLT-4, in the assay on COLO 205, with KM12, in the assay on NCI-H226, with HL-60 and in the assay with SF-539 was > 100 µM (inactive) in each case. Further, the GI50 in the assay on CAKI-1, with EKVX, in the assay on OVCAR-3, in the assay with LOX IMVI, in the assay on A549 and in the assay with NCI-H460 was > 100 µM (inactive) each time.
For the molecule `Cc1cc(Cl)ccc1/N=C1/NC(=O)C(CC(=O)Nc2cccc(C)c2C)S1` (stereo not drawn), the GI50 in the assay on SF-268 was 26 µM (inactive); in the assay on UACC-257 it was 29.5 µM (inactive); with SK-MEL-5, 20.4 µM (inactive); in the assay on ACHN, 26 µM (inactive); in the assay on SK-MEL-28, 30.2 µM (inactive); in the assay with SW-620 it was 35.1 µM (inactive). Besides, the GI50 in the assay with MOLT-4 is 24.5 µM (inactive); in the assay on COLO 205, 24.3 µM (inactive); in the assay with KM12, 32.4 µM (inactive); in the assay on SF-539 it was 21.5 µM (inactive); in the assay with CAKI-1, 23.6 µM (inactive); with EKVX it was 37.8 µM (inactive). Further, the GI50 is 31.2 µM (inactive) in the assay with OVCAR-3, 22.3 µM (inactive) in the assay with LOX IMVI, 32 µM (inactive) in the assay on A549 and 31.3 µM (inactive) in the assay on NCI-H460.
Consider `CN1C(=O)NC2(O)c3ccccc3C(=O)C12O` (stereo not drawn), for which the GI50 in the assay on SF-268, in the assay with UACC-257, in the assay on SK-MEL-28, in the assay on SW-620, in the assay with MOLT-4 and in the assay with COLO 205 was > 100 µM (inactive) in each case. The GI50 in the assay on KM12, with HL-60, with CAKI-1, in the assay with EKVX, in the assay with OVCAR-3 and in the assay on LOX IMVI was > 100 µM (inactive) each time. Further, the GI50 in the assay with A549, in the assay with NCI-H522 and in the assay with NCI-H460 was > 100 µM (inactive) in each case.
Take `CCCCC1=CSC(c2ccccc2)=C(c2ccccc2)S1`: the GI50 in the assay on SK-MEL-5 was 23.9 µM (inactive); with SK-MEL-28 it was 63.5 µM (inactive); in the assay on SW-620, 69 µM (inactive); with MOLT-4 it was 8.97 µM (inactive); in the assay on COLO 205, > 100 µM (inactive); with KM12, 42.3 µM (inactive). Moreover, the GI50 with NCI-H226 is > 100 µM (inactive); in the assay on SF-539 it was > 100 µM (inactive); with EKVX it was > 100 µM (inactive); in the assay with OVCAR-3 it was 60.4 µM (inactive); in the assay on LOX IMVI it was 20.1 µM (inactive); in the assay with A549, 64.1 µM (inactive). Also, in the assay with NCI-H460, the GI50 was 53.1 µM (inactive).
For the molecule `CC1C=CC(=O)C(n2cc(F)c(=O)[nH]c2=O)O1` (stereo not drawn), the GI50 was 16.4 µM (inactive) with UACC-257; 17.9 µM (inactive) in the assay with SK-MEL-5; 20 µM (inactive) in the assay with ACHN; 23.4 µM (inactive) in the assay on SK-MEL-28; 17.6 µM (inactive) in the assay with SW-620; 16.5 µM (inactive) with MOLT-4. The GI50 in the assay with COLO 205 was 20.1 µM (inactive); in the assay on HL-60, 20.1 µM (inactive); with SF-539, 17.2 µM (inactive); in the assay on CAKI-1 it was 11.6 µM (inactive); in the assay with EKVX, 22.5 µM (inactive); in the assay on OVCAR-3 it was 17.3 µM (inactive). Also, the GI50 in the assay with LOX IMVI was 15.8 µM (inactive); with A549, 24.4 µM (inactive); in the assay with NCI-H460 it was 23.3 µM (inactive).
`Cn1nc(C(=O)N2CC(CCl)c3c2cc(N)c2ccccc32)cc1NC(=O)Nc1cc(C(=O)N2CC(CCl)c3c2cc(N)c2ccccc32)nn1C` (stereo not drawn): the GI50 with SF-268 was 0.0275 µM (active); with UACC-257, 0.521 µM (active); in the assay with SK-MEL-5, 0.192 µM (active); in the assay on ACHN, 0.508 µM (active); in the assay on SK-MEL-28, 0.108 µM (active); in the assay with SW-620, 0.0271 µM (active). Besides, the GI50 is < 0.01 µM (active) with MOLT-4; 0.163 µM (active) in the assay with COLO 205; 0.948 µM (active) in the assay with KM12; 0.016 µM (active) in the assay with SF-539; 0.254 µM (active) in the assay with CAKI-1; 29 µM (inactive) with EKVX. The GI50 is 0.201 µM (active) in the assay on OVCAR-3, < 0.01 µM (active) in the assay with LOX IMVI, 0.499 µM (active) in the assay with A549 and < 0.01 µM (active) in the assay with NCI-H460.
Turning to `COc1ccc(NC(=O)CC(=O)n2nc(C)c(/N=N/c3ccccc3C(=O)O)c2C)cc1`, the GI50 in the assay with SF-268, with UACC-257, with SK-MEL-5, in the assay with SK-MEL-28, in the assay with SW-620 and in the assay on MOLT-4 was > 100 µM (inactive) in each case. The GI50 in the assay with COLO 205, with KM12, in the assay on HL-60, with SF-539, in the assay with CAKI-1 and in the assay with EKVX was > 100 µM (inactive) each time. For the same molecule, the GI50 in the assay on OVCAR-3, with LOX IMVI, with A549, with NCI-H522 and in the assay with NCI-H460 was > 100 µM (inactive) throughout.
Consider `C=C/C=C/NC(=O)OCc1ccccc1`, for which the GI50 in the assay with SF-268, in the assay on UACC-257, with SK-MEL-5, with ACHN, with SK-MEL-28 and in the assay on SW-620 was > 100 µM (inactive) each time. Further, the GI50 with MOLT-4, in the assay with COLO 205, in the assay with KM12, in the assay on HL-60, with CAKI-1 and in the assay with EKVX was > 100 µM (inactive) throughout. Further, the GI50 with OVCAR-3, in the assay on LOX IMVI, in the assay on A549, with NCI-H522 and with NCI-H460 was > 100 µM (inactive) each time.
For the molecule `Cc1ccc(C2=C(c3ccccc3)C(Br)(c3ccc(C)cc3)C(c3ccccc3)=C2c2ccc(C)cc2)cc1`, the GI50 in the assay with SF-268, in the assay with UACC-257, in the assay with SK-MEL-5, in the assay with ACHN, in the assay with SK-MEL-28 and in the assay with SW-620 was > 100 µM (inactive) each time. In addition, the GI50 in the assay with MOLT-4, in the assay on COLO 205, in the assay on KM12, in the assay on HL-60, with SF-539 and in the assay on CAKI-1 was > 100 µM (inactive) each time. The GI50 with EKVX, in the assay on OVCAR-3, in the assay on LOX IMVI, with A549 and in the assay on NCI-H460 was > 100 µM (inactive) throughout.
Take `COC(=O)C1=C2CCC(=O)[C@@]2(C)C(OC(C)=O)C=CC1` (stereo partly drawn): the GI50 was 40.5 µM (inactive) in the assay with UACC-257; > 100 µM (inactive) with SK-MEL-5; > 100 µM (inactive) in the assay with ACHN; > 100 µM (inactive) in the assay with SK-MEL-28; 36.4 µM (inactive) in the assay on SW-620; 35.9 µM (inactive) in the assay on MOLT-4. Further, the GI50 in the assay with KM12 was > 100 µM (inactive); in the assay on NCI-H226, > 100 µM (inactive); in the assay on HL-60, 29.5 µM (inactive); in the assay with SF-539 it was 49.3 µM (inactive); with CAKI-1 it was > 100 µM (inactive); in the assay on EKVX, > 100 µM (inactive). The figures for the GI50 with OVCAR-3, in the assay on A549 and in the assay with NCI-H460 were 53.6 µM (inactive), > 100 µM (inactive) and > 100 µM (inactive), respectively.
Take `CC(C(=O)C(C)O[Si](c1ccccc1)(c1ccccc1)C(C)(C)C)=P(c1ccccc1)(c1ccccc1)c1ccccc1` (stereo not drawn): the GI50 was 3.71 µM (inactive) in the assay on UACC-257; 2.75 µM (inactive) in the assay on SK-MEL-5; 4.08 µM (inactive) in the assay on ACHN; 3.91 µM (inactive) with SW-620; 2.95 µM (inactive) in the assay on MOLT-4; 1.8 µM (inactive) in the assay with COLO 205. The GI50 with KM12 is 3.61 µM (inactive); with NCI-H226, 3.3 µM (inactive); in the assay with HL-60, 1.91 µM (inactive); in the assay on SF-539, 3.89 µM (inactive); with CAKI-1, 3.21 µM (inactive); in the assay with EKVX it was 12.9 µM (inactive). The GI50 is 2.9 µM (inactive) in the assay with OVCAR-3, 3.29 µM (inactive) in the assay on LOX IMVI, 3.3 µM (inactive) with A549 and 3.69 µM (inactive) in the assay on NCI-H460.
For `Cn1cnc([N+](=O)[O-])c1Sc1nc2cc([N+](=O)[O-])ccc2[nH]1`, the GI50 is 19.9 µM (inactive) in the assay with SF-268; 14.3 µM (inactive) in the assay on UACC-257; 15.5 µM (inactive) in the assay on SK-MEL-5; 36.5 µM (inactive) in the assay with ACHN; 15.3 µM (inactive) in the assay with SK-MEL-28; 27.9 µM (inactive) in the assay on SW-620. Moreover, the GI50 is 14.8 µM (inactive) in the assay with MOLT-4; 10.4 µM (inactive) in the assay with COLO 205; 34.9 µM (inactive) in the assay on KM12; 40.2 µM (inactive) in the assay with NCI-H226; 14 µM (inactive) with HL-60; 19.1 µM (inactive) in the assay on SF-539. For the same molecule, the GI50 in the assay with CAKI-1 was 12.6 µM (inactive); in the assay with EKVX, 10.5 µM (inactive); in the assay with OVCAR-3, 37.9 µM (inactive); in the assay on LOX IMVI, 24.7 µM (inactive); in the assay with A549, 29.3 µM (inactive); in the assay on NCI-H460, 36.1 µM (inactive).
